Results published in patent US11052026B2, “Multi-capsule containing pigment for cosmetic material or functional component, and method for producing same” (CHEMLAND. CO., LTD., priority 2017, dated 2021).

Assay: Residual rate of functional component during storage at 35° C. for 16 weeks (Example 1)
Assay type: physicochemical
Conditions: stored at 35° C.
Procedure: The residual rates of the functional components were compared while the cosmetic functional multi-capsule in Preparation Example 3 was stored at 35° C.

## O=C1O[C@H]([C@@H](O)CO)C(O)=C1O [compound 1, ascorbic acid]
Storage period 2 weeks
  Ascorbic Acid Residual Rate: 97.2%
Storage period 4 weeks
  Ascorbic Acid Residual Rate: 95.3%
Storage period 6 weeks
  Ascorbic Acid Residual Rate: 92.9%
Storage period 8 weeks
  Ascorbic Acid Residual Rate: 90%
Storage period 10 weeks
  Ascorbic Acid Residual Rate: 88.4%
Storage period 12 weeks
  Ascorbic Acid Residual Rate: 81.2%
Storage period 14 weeks
  Ascorbic Acid Residual Rate: 76.3%
Storage period 16 weeks
  Ascorbic Acid Residual Rate: 70.5%

## anthocyanin [compound 2]
Storage period 2 weeks
  Functional Component Residual Rate: 97.2%
Storage period 4 weeks
  Functional Component Residual Rate: 94.5%
Storage period 6 weeks
  Functional Component Residual Rate: 91.8%
Storage period 8 weeks
  Functional Component Residual Rate: 88.8%
Storage period 10 weeks
  Functional Component Residual Rate: 86.5%
Storage period 12 weeks
  Functional Component Residual Rate: 78.5%
Storage period 14 weeks
  Functional Component Residual Rate: 74.5%
Storage period 16 weeks
  Functional Component Residual Rate: 69.5%
